Measured values as given in US11357760B2, “Method of treating liver fibrosis” (ChemoCentryx, Inc., priority 2016, dated 2022).

Assays:
MCD-induced NASH model = test: Methionine-choline deficient (MCD) induced NASH model; assay type: in vivo, mice C57Bl/6; settings: Compound 1 subcutaneously, CVC orally; for serum ALT levels: FIG. 5; for trough drug level: 30 mg/kg
Experimental: (§1) Compound 1 was administered subcutaneously to maintain high systemic levels. […] Formalin-fixed, paraffin-embedded liver sections were stained separately with hematoxylin & eosin (H&E) and for Sirius red Picrosirius red (#365548, Sigma) and evaluated for severity of liver fibrosis. All pathologic evaluations were made by a pathologist on a random and blinded basis. Collagen surface density was quantified using Image J (NIH). Two Sirius red-stained slides per animal were taken at different depth, with 18 images taken randomly per slide for a total of 36 images per animal for collagen quantification. Liver enzymes were assayed by Antech GLP (Morrisville, N.C.). Insulin was measured with Ultrasensitive. Mouse Insulin ELISA kit (Crystal Chem Inc: #90080); Blood glucose and insulin levels were determined after an overnight fast (14-16 h). Insulin sensitivity was determined by the homeostatic model assessment of insulin resistance (HOMA-IR). Lipids were measured in the serum and liver with a Triglyceride Colorimetric Assay kit (Cayman Chemical Company: #10010303), a Free Fatty Acid Quantification kit, (Abcam, ab65341) and Cholesterol Quantification kit (Abcam, ab65359).

CCR5 = CCR5 (Homo sapiens, UniProt P51681); settings: summary of Table 1
Chain of CCR5 (P51681 whole entry, species assumed): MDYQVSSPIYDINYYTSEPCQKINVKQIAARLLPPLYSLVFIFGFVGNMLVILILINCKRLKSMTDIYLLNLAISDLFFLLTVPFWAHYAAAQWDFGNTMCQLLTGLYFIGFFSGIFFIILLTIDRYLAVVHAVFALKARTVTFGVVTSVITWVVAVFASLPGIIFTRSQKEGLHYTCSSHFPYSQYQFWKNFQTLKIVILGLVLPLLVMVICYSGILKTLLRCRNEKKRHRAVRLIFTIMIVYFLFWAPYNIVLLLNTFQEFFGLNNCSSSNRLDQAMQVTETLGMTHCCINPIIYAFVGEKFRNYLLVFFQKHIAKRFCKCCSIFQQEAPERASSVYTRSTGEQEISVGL
Experimental: A conventional migration assay was used to determine the efficacy of potential receptor antagonists in blocking migration mediated through MIP1b. This assay was routinely performed using the ChemoTX® (Neuroprobe) microchamber system with a 5-mum pore-sized polycarbonate membrane. CCR5 expressing cells (IL-2 Lymphocytes or L1.2CCR5 cells) were harvested by centrifugation of cell suspension at 1000 RPM on a GS-6R Beckman centrifuge. […] An equal volume of cells and compounds were mixed and incubated at room temperature for 15 minutes. Afterwards, 20 μl of the mixture was transferred onto the porous membrane of a migration microchamber, with 29 μl of MIP1b ligand (0.1 nM MIP1b protein) placed at the lower chamber. Following incubation at 37 degrees centigrade (90-minute), the assay was terminated by removing the cell drops from atop the filter. To quantify cells migrated across the membrane, 5 mul_ of 7× CyQUANT® (ThermoFisher) solution was added to each well in the lower chamber, and the fluorescence signal measured on a Spectrafluor Plus fluorescence plate reader (TECAN, Durham, N.C.). The degree of inhibition was determined by comparing migration signals between compound-treated and untreated cells. IC50 calculation was further performed by non-linear squares regression analysis using Graphpad Prism (Graphpad Software, San Diego, Calif.).

[1] = test system: HFD/fructose-induced NASH model; test: High fat diet (HFD)/fructose-induced NASH model; assay type: in vivo, mice C57Bl/6; settings: 30 mg/kg subcutaneously once per day for 8 weeks
From the text: as §1, with “Male wild-type (WT) mice C57Bl/6 were obtained from Jackson Laboratory and fed either with high-fat diet (D12492, 60 Cal % fat, Research Diets, New Brunswick, N.J.) with 30% fructose in the drink water or a lean control diet (D12450B, 10 Cal % fat, Research Diets) at 6-8 week of age and maintained on the respective diet for the duration of the study (16-32 weeks). […] Sirius red-staining” for “Compound 1”, “used” for “administered subcutaneously”, “evaluate the severity of liver fibrosis.” for “maintain high systemic levels.”

Structure (SMILES)	serum ALT levels (MCD-induced NASH model; 30 mg/kg for 8 weeks)	trough drug level (MCD-induced NASH model)	CCR5 inhibition (in words) (CCR5)	Sirius red-positive staining (liver fibrosis) (MCD-induced NASH model; 30 mg/kg for 8 weeks, FIG. 6)	change in body weight compared to vehicle ([1]; FIG. 1)	serum ALT levels ([1]; FIG. 2)	serum AST levels ([1]; FIG. 2)	percentage of Sirius red staining (liver fibrosis) compared to vehicle ([1]; FIG. 4)
CCCCOCCOc1ccc(-c2ccc3c(c2)/C=C(/C(=O)Nc2ccc([S@@+]([O-])Cc4cncn4CCC)cc2)CCCN3CC(C)C)cc1 [CVC, cenicriviroc, reference compound]	does not	over IC50	potent CCR5 inhibitor					
Cc1cnc(C(=O)c2ccnc3[nH]ccc23)c(NS(=O)(=O)c2ccc(Cl)c(C(F)(F)F)c2)c1 [Compound 1]	significantly reduces	over IC50		reduces	did not change	reduced	reduced	reduced
